{"source": "ChEMBL document CHEMBL5500372", "about": "“Novel natural osthole-inspired amphiphiles as membrane targeting antibacterials against methicillin-resistant Staphylococcus aureus (MRSA)” (Eur J Med Chem, 2024)", "key": {"Staphylococcus aureus [1]": {"system": "Staphylococcus aureus", "test": "Antibacterial activity against methicillin-resistant Staphylococcus aureus clinical isolate 16 infected in female KM mouse skin abscess model assessed as reduction in infiltration of inflammatory cells in dermis at 10 mg/kg, sc measured after 24 hrs by H and E staining based analysis", "assay_type": "functional, organism-based"}, "Cell membrane [2]": {"system": "Cell membrane", "test": "Induction of cell membrane disruption in methicillin-resistant Staphylococcus aureus clinical isolate 16 assessed as dead cells (Q1 region) at 32 ug/ml measured after 2 hrs by SYTO-9 and PI staining based flow cytometry analysis (reference value: 0%)", "assay_type": "cell membranes", "details": "dose 32.0 µg/ml"}, "[3]": {"test": "Stability in 50% sheep blood plasma measured after 6 hrs", "assay_type": "ADME, cell-free, Ovis aries"}, "Cell membrane [4]": {"system": "Cell membrane", "test": "Induction of cytoplasmic membrane depolarization in methicillin-resistant Staphylococcus aureus clinical isolate 16 assessed as increase in fluorescence intensity at 8 to 32 time MIC measured for 10 mins by DiSC3-5 dye based fluorescence method"}, "Staphylococcus aureus [5]": {"system": "Staphylococcus aureus", "test": "Antibacterial activity against methicillin-resistant Staphylococcus aureus clinical isolate 16 measured after 18 hrs by CLSI based broth microdilution method", "assay_type": "functional"}, "Staphylococcus aureus [6]": {"system": "Staphylococcus aureus", "test": "Antibacterial activity against methicillin-resistant Staphylococcus aureus clinical isolate 17 measured after 18 hrs by CLSI based broth microdilution method", "assay_type": "functional"}, "[7]": {"test": "Toxicity in female KM mouse skin abscess model infected with methicillin-resistant Staphylococcus aureus clinical isolate 16 assessed as histological abnormalities in lung at 5 to 10 mg/kg, sc measured after 24 hrs by H and E staining based analysis", "assay_type": "organism-based", "details": "in vivo, dose 5-10 mg/kg"}, "Cell membrane [8]": {"system": "Cell membrane", "test": "Induction of cell membrane disruption in methicillin-resistant Staphylococcus aureus clinical isolate 16 assessed as intact cells (Q3 region) at 4 ug/ml measured after 2 hrs by SYTO-9 and PI staining based flow cytometry analysis (reference value: 96.0%)", "assay_type": "cell membranes", "details": "dose 4.0 µg/ml"}, "[9]": {"test": "Toxicity in female KM mouse skin abscess model infected with methicillin-resistant Staphylococcus aureus clinical isolate 16 assessed as histological abnormalities in spleen at 5 to 10 mg/kg, sc measured after 24 hrs by H and E staining based analysis", "assay_type": "organism-based", "details": "in vivo, dose 5-10 mg/kg"}, "Cell membrane [10]": {"system": "Cell membrane", "test": "Induction of cell membrane disruption in methicillin-resistant Staphylococcus aureus clinical isolate 16 assessed as dead cells (Q1 region) at 16 ug/ml measured after 2 hrs by SYTO-9 and PI staining based flow cytometry analysis (reference value: 0%)", "assay_type": "cell membranes", "details": "dose 16.0 µg/ml"}, "Staphylococcus aureus [11]": {"system": "Staphylococcus aureus", "test": "Antibacterial activity against methicillin-resistant Staphylococcus aureus clinical isolate 16 infected in female KM mouse skin abscess model assessed as log reduction in bacterial load at 5 mg/kg, sc measured after 24 hrs (reference value: 8.508 log10CFU/g)", "assay_type": "functional"}, "[12]": {"test": "Toxicity in female KM mouse assessed as swelling in skin at 40 to 80 mg/kg, sc measured after 24 hrs", "assay_type": "organism-based", "details": "in vivo, dose 40-80 mg/kg"}, "[13]": {"test": "Toxicity in female KM mouse assessed as effect on histopathological abnormalities in kidney at 20 mg/kg, sc measured after 24 hrs by H and E staining based analysis", "assay_type": "organism-based", "details": "in vivo"}, "Staphylococcus aureus [14]": {"system": "Staphylococcus aureus", "test": "Antibacterial activity against methicillin-resistant Staphylococcus aureus clinical isolate 16 infected in female KM mouse skin abscess model assessed as effect on abscess in intradermal tissue at 5 mg/kg, sc measured after 24 hrs", "assay_type": "functional, organism-based"}, "[15]": {"test": "Toxicity in female KM mouse assessed as effect on histopathological abnormalities in liver at 20 mg/kg, sc measured after 24 hrs by H and E staining based analysis", "assay_type": "organism-based", "details": "in vivo"}, "Cell membrane [16]": {"system": "Cell membrane", "test": "Induction of cell membrane disruption in methicillin-resistant Staphylococcus aureus clinical isolate 16 assessed as intact cells (Q3 region) at 32 ug/ml measured after 2 hrs by SYTO-9 and PI staining based flow cytometry analysis (reference value: 96.0%)", "assay_type": "cell membranes", "details": "dose 32.0 µg/ml"}, "[17]": {"test": "Toxicity in female KM mouse assessed as effect on mean corpuscular volume at upto 20 mg/kg, sc measured after 24 hrs", "assay_type": "organism-based", "details": "in vivo"}, "Escherichia coli": {"system": "Escherichia coli", "test": "Antibacterial activity against Escherichia coli ATCC 25922 measured after 18 hrs by CLSI based broth microdilution method", "assay_type": "functional"}, "Staphylococcus aureus [18]": {"system": "Staphylococcus aureus", "test": "Antibacterial activity against methicillin-resistant Staphylococcus aureus clinical isolate 21 measured after 18 hrs by CLSI based broth microdilution method", "assay_type": "functional"}, "Staphylococcus aureus [19]": {"system": "Staphylococcus aureus", "test": "Antibacterial activity against methicillin-resistant Staphylococcus aureus clinical isolate 16 infected in female KM mouse skin abscess model assessed as reduction in TNF-alpha level at 5 to 10 mg/kg, sc measured after 24 hrs by ELISA method", "assay_type": "functional, organism-based", "details": "dose 5-10 mg/kg"}, "[20]": {"test": "Toxicity in female KM mouse assessed as effect on spleen at 20 mg/kg, sc measured after 24 hrs by H and E staining based analysis", "assay_type": "organism-based", "details": "in vivo"}, "Staphylococcus aureus [21]": {"system": "Staphylococcus aureus", "test": "Antibacterial activity against methicillin-resistant Staphylococcus aureus clinical isolate 16 infected in female KM mouse skin abscess model assessed as effect on skin lesions at 10 mg/kg, sc measured after 24 hrs", "assay_type": "functional, organism-based"}, "[22]": {"test": "Toxicity in female KM mouse assessed as effect on lung at 20 mg/kg, sc measured after 24 hrs by H and E staining based analysis", "assay_type": "organism-based", "details": "in vivo"}, "[23]": {"test": "Toxicity in female KM mouse assessed as redness in skin at 40 to 80 mg/kg, sc measured after 24 hrs", "assay_type": "organism-based", "details": "in vivo, dose 40-80 mg/kg"}, "[24]": {"test": "Toxicity in female KM mouse assessed as effect on UREA at upto 20 mg/kg, sc measured after 24 hrs by biochemical test", "assay_type": "organism-based", "details": "in vivo"}, "Cell membrane [25]": {"system": "Cell membrane", "test": "Induction of cytoplasmic membrane permeabilization in methicillin-resistant Staphylococcus aureus clinical isolate 16 assessed as increase in fluorescence intensity at 8 to 32 time MIC measured for 10 mins by SYTOX green dye based fluorescence analysis", "assay_type": "cell membranes"}, "Staphylococcus aureus [26]": {"system": "Staphylococcus aureus", "test": "Antibacterial activity against methicillin-resistant Staphylococcus aureus clinical isolate 12 measured after 18 hrs by CLSI based broth microdilution method", "assay_type": "functional"}, "[27]": {"test": "Toxicity in female KM mouse skin abscess model infected with methicillin-resistant Staphylococcus aureus clinical isolate 16 assessed as histological abnormalities in heart at 5 to 10 mg/kg, sc measured after 24 hrs by H and E staining based analysis", "assay_type": "organism-based", "details": "in vivo, dose 5-10 mg/kg"}, "Staphylococcus aureus [28]": {"system": "Staphylococcus aureus", "test": "Bactericidal activity against Staphylococcus aureus ATCC 29213 assessed as eradication of bacteria at 8 times MIC measured after 4 hrs by time-kill assay relative to control", "assay_type": "functional"}, "Staphylococcus aureus [29]": {"system": "Staphylococcus aureus", "test": "Antibacterial activity against methicillin-resistant Staphylococcus aureus clinical isolate 16 measured after 18 hrs in presence of peptidoglycan by checkerboard broth dilution method", "assay_type": "functional, organism-based"}, "Cell membrane [30]": {"system": "Cell membrane", "test": "Induction of cytoplasmic membrane permeabilization in methicillin-resistant Staphylococcus aureus clinical isolate 16 assessed as fold increase in fluorescence intensity at 32 time MIC measured after 35 mins by SYTOX green dye based fluorescence analysis"}, "Staphylococcus aureus [31]": {"system": "Staphylococcus aureus", "test": "Antibacterial activity against methicillin-resistant Staphylococcus aureus clinical isolate 16 infected in female KM mouse skin abscess model assessed as log reduction in bacterial load at 10 mg/kg, sc measured after 24 hrs (reference value: 8.508 log10CFU/g)", "assay_type": "functional"}, "[32]": {"test": "Toxicity in female KM mouse skin abscess model infected with methicillin-resistant Staphylococcus aureus clinical isolate 16 assessed as effect on spleen at 5 to 10 mg/kg, sc measured after 24 hrs by H and E staining based analysis", "assay_type": "organism-based", "details": "in vivo, dose 5-10 mg/kg"}, "[33]": {"test": "Toxicity in female KM mouse assessed as effect on platelet count at upto 20 mg/kg, sc measured after 24 hrs", "assay_type": "organism-based", "details": "in vivo"}}, "note": "Activity calls are given as the source filed them. The calls are words filed in the database; no cut-off is given here."}
{"smiles": "CCCCCCNC(=O)C[N+](C)(C)CCCCCOc1ccc2ccc(=O)oc2c1CC=C(C)C.[Br-]", "values": [{"measurement": "Activity", "setting": "Staphylococcus aureus [1]", "result": "Active"}, {"measurement": "Activity", "setting": "Cell membrane [2]", "result": 61.7, "unit": "%"}, {"measurement": "Stability", "setting": "[3]", "result": "Stable"}, {"measurement": "Activity", "setting": "Cell membrane [4]", "result": "Active"}, {"measurement": "MIC", "setting": "Staphylococcus aureus [5]", "result": 1, "unit": "µg/mL"}, {"measurement": "MIC", "setting": "Staphylococcus aureus [6]", "result": 1, "unit": "µg/mL"}, {"measurement": "Activity", "setting": "[7]", "result": "Non-Toxic"}, {"measurement": "Activity", "setting": "Cell membrane [8]", "result": 76.9, "unit": "%"}, {"measurement": "Activity", "setting": "[9]", "result": "Non-Toxic"}, {"measurement": "Activity", "setting": "Cell membrane [10]", "result": 0.68, "unit": "%"}, {"measurement": "Activity", "setting": "Staphylococcus aureus [11]", "result": 2.962, "unit": "log10CFU/g"}, {"measurement": "Activity", "setting": "[12]", "result": "Toxic"}, {"measurement": "Activity", "setting": "[13]", "result": "Non-Toxic"}, {"measurement": "Activity", "setting": "Staphylococcus aureus [14]", "result": "Active"}, {"measurement": "Activity", "setting": "[15]", "result": "Non-Toxic"}, {"measurement": "Activity", "setting": "Cell membrane [16]", "result": 0.05, "unit": "%"}, {"measurement": "Activity", "setting": "[17]", "result": "Non-Toxic"}, {"measurement": "MIC", "setting": "Escherichia coli", "result": 32, "unit": "µg/mL"}, {"measurement": "MIC", "setting": "Staphylococcus aureus [18]", "result": 2, "unit": "µg/mL"}, {"measurement": "Activity", "setting": "Staphylococcus aureus [19]", "result": "Active"}, {"measurement": "Activity", "setting": "[20]", "result": "Non-Toxic"}, {"measurement": "Activity", "setting": "Staphylococcus aureus [21]", "result": "inactive"}, {"measurement": "Activity", "setting": "[22]", "result": "Non-Toxic"}, {"measurement": "Activity", "setting": "[23]", "result": "Toxic"}, {"measurement": "Activity", "setting": "[24]", "result": "Non-Toxic"}, {"measurement": "Activity", "setting": "Cell membrane [25]", "result": "Active"}, {"measurement": "MIC", "setting": "Staphylococcus aureus [26]", "result": 2, "unit": "µg/mL"}, {"measurement": "Activity", "setting": "[27]", "result": "Non-Toxic"}, {"measurement": "Activity", "setting": "Staphylococcus aureus [28]", "result": 100, "unit": "%"}, {"measurement": "Activity", "setting": "Staphylococcus aureus [29]", "result": "Active"}, {"measurement": "fold change (FC)", "setting": "Cell membrane [30]", "result": 50}, {"measurement": "Activity", "setting": "Staphylococcus aureus [31]", "result": 4.458, "unit": "log10CFU/g"}, {"measurement": "Activity", "setting": "[32]", "result": "Non-Toxic"}, {"measurement": "Activity", "setting": "[33]", "result": "Non-Toxic"}]}
